# Test system: Reconstructed Human Epidermids (RHEs)
# Assay: trans-epithelial electrical resistance (TEER) testing
# Type: cell-based
# Conditions: SDS 0.1% solution on RHE, FIG. 3
# Method: The formulations described in Tables B-F were tested for their effect on trans-epithelial electrical resistance according to the following procedure.
# 1 ml of saline solution is directly applied on the tissue placed in a 6 well plate containing 4 ml of saline solution as well.
# The instrument Millicell-ERS (range 0-20 kΩ) is placed with the two electrodes in the two chambers and the measure is recorded directly and reported in the laboratory note book.
# Five measurements for each tissue have been done: because of the variability within the tissues the measurement done at t=0 has been taken as basal value and reference of each single tissue.
# At the arrival the tissues have been placed in 6 well plates with maintenance medium (SkinEthic) for 2 hours before the TEER measurements.
# The basal TEER value is measured on all the tissue as described in the method.
# The tissues have been recovered in maintenance medium (1 ml) and the test items have been applied at the dose of 50 μl.
# Tissues have been finally incubated at 37° C. in 5% CO2 incubator.
# The tissues have been rinsed with saline solution and the second TEER measurement, corresponding to the 24 h exposure, has been performed.
# The RHEs have been recovered in fresh maintenance medium (1 ml) for a 24 h post incubation time. […]
compound,measurement,value
CCCCCCCCCCCCOS(=O)(=O)[O-].[Na+] [sodium dodecyl sulphate],TEER,strong decrease of TEER

# Reference: US9404192B2, “Highly stable electrolytic water with reduced NMR half line width” (priority 2007, dated 2016)
